From US20260207585A1, “METHODS AND COMPOSITIONS FOR THE TREATMENT OF PARKINSON'S DISEASE, HUNTINGTON'S DISEASE, AMYOTROPHIC LATERAL SCLEROSIS, AND LEARNING DISORDERS” (Cedars-Sinai Medical Center, priority 2022, published 2026) come the findings set out here.

Assay [1] deals with T1, NSD2 (E1099K) (Homo sapiens, UniProt O96028, E1099K).
T1 sequence (O96028 1-1365 E1099K): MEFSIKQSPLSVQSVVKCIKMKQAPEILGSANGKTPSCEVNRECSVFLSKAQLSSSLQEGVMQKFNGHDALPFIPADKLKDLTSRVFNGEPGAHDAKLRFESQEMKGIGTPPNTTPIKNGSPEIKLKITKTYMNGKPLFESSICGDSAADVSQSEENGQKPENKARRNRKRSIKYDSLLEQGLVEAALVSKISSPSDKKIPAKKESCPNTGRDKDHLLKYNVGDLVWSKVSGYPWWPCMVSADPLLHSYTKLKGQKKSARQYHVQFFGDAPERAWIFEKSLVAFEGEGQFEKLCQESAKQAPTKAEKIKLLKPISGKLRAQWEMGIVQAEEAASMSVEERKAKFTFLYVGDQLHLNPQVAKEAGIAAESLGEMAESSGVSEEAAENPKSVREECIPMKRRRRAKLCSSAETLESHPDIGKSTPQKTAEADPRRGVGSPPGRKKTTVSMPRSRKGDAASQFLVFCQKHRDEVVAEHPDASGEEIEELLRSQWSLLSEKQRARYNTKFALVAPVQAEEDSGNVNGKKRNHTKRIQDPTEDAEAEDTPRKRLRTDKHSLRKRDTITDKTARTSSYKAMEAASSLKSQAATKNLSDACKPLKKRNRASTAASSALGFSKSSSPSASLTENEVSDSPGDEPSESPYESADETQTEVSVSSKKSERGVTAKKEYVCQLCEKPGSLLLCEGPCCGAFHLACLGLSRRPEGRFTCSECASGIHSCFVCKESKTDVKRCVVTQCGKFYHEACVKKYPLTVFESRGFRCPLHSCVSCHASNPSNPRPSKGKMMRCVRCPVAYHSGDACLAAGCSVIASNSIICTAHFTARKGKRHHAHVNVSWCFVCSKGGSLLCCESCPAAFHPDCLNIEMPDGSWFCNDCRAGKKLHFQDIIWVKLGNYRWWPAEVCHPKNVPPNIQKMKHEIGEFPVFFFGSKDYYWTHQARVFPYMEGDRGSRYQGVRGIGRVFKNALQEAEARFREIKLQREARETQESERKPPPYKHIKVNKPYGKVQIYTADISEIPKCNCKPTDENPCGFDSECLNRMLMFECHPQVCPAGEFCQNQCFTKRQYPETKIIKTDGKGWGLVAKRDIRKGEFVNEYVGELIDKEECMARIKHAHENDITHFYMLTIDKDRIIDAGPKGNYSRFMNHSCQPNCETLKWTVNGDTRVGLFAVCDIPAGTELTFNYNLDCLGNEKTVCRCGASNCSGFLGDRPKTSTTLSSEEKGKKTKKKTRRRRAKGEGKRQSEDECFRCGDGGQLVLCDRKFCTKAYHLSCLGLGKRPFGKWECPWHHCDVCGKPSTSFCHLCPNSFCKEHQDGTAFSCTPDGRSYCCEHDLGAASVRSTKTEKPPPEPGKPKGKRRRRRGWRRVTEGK
Nature of the assay: Methyltransferase inhibition panel: NSD2 (E1099K). It is filed as biochemical. The protocol:
(§1) The ability of ETP69 to inhibit methyltransferases was tested.

Assay [2] deals with AD+ mice. Briefly: Open Field Barnes Maze test. Format: in vivo. As to conditions: AD+ mice vs AD+ mice treated with DMSO. The protocol: The effects of single and repeated ETP69 injections in mice were tested. The experimental timeline is depicted in FIG. 5. Three parallel injection conditions were tested: a single ETP69 condition, a boosted ETP69 injection, and repeated ETP69 injections. The single injection mice received one injection of ETP69 or DMSO at Day 0. The mice that received a boosted injection received one injection of ETP69 or DMSO at day 0 and one injection at day 9. The mice that received repeated injections received 11 injections of ETP69 or DMSO at day 0 or day 9. Both wildtype and AD model (APP/PS1-transgenic) mice were tested.
The results of the Open Field Barnes Maze test indicate hippocampal-based spatial memory. FIG. 7A depicts a schematic of the Barnes Maze Test. […] The results of the fear conditioning test indicate spatial memory.

For assay [3], the target named is EZH2 Complex (Homo sapiens, UniProt Q15910). Briefly: Methyltransferase inhibition panel: EZH2 Complex. It is filed as biochemical. Conditions: NT1721 20 μM; substrate Core Histone 0.05 mg/mL. The protocol: as §1

Where two headings read alike, the source gives them in different places.

EZH2 Complex, sequence (Q15910 whole entry): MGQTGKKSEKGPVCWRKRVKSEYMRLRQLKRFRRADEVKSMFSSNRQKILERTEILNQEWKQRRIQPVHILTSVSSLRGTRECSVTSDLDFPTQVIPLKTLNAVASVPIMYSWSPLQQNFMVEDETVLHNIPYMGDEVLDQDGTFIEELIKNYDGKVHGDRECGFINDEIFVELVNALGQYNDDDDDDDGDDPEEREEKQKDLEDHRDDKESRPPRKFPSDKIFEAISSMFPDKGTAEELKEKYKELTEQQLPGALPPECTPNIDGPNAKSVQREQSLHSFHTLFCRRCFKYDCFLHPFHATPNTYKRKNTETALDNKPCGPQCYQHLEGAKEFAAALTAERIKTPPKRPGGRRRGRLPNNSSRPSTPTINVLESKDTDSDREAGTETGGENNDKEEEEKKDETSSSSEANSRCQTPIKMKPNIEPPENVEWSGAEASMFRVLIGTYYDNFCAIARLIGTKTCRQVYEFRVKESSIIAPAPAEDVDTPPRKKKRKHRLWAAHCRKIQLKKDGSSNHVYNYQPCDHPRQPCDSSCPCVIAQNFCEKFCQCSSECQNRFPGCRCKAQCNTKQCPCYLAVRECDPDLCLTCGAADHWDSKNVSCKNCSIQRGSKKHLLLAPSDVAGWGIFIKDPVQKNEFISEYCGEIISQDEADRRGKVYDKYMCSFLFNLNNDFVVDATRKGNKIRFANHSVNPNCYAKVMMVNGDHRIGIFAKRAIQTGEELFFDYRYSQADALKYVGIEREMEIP
EZH2 Complex, sequence (O75530 whole entry partner): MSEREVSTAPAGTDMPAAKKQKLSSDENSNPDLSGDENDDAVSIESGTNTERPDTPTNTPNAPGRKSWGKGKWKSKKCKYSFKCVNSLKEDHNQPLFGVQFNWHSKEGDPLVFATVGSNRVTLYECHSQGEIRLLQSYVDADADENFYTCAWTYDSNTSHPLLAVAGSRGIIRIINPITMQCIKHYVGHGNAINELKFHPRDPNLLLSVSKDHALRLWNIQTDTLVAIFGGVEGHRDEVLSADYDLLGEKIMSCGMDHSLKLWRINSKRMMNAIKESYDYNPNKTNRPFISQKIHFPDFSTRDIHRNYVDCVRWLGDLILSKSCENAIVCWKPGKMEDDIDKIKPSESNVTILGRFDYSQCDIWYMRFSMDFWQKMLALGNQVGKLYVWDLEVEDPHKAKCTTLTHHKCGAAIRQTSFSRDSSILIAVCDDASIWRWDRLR
EZH2 Complex, sequence (Q15022 whole entry partner): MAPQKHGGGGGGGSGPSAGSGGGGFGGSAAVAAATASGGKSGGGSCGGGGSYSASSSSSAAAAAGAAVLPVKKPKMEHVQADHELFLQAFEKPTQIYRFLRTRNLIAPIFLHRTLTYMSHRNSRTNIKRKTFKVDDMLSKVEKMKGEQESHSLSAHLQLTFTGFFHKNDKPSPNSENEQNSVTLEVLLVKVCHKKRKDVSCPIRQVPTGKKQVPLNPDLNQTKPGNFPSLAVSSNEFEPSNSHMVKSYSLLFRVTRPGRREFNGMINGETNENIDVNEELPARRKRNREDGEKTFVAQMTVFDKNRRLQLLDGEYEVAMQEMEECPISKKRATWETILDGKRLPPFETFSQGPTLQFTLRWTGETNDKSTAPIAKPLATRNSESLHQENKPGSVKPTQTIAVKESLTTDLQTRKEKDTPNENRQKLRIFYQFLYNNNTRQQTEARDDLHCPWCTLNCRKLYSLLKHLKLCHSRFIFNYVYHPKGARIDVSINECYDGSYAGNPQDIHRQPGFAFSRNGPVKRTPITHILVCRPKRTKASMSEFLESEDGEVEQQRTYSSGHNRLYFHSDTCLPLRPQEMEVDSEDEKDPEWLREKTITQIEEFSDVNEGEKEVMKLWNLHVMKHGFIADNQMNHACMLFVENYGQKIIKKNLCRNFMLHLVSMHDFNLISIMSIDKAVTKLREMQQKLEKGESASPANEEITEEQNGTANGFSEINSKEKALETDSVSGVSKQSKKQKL
EZH2 Complex, sequence (Q09028 whole entry partner): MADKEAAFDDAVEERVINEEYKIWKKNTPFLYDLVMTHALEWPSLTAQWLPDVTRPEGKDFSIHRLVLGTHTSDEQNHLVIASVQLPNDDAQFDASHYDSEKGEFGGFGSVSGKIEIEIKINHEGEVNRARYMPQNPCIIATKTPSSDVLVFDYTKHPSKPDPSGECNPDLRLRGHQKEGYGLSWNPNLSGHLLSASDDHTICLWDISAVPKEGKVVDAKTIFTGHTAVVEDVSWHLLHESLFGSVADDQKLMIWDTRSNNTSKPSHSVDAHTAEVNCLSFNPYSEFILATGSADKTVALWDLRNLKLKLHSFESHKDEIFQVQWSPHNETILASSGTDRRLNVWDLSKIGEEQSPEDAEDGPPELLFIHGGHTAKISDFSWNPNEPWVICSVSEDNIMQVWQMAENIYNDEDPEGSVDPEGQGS
EZH2 Complex, sequence (Q6ZN18 whole entry partner): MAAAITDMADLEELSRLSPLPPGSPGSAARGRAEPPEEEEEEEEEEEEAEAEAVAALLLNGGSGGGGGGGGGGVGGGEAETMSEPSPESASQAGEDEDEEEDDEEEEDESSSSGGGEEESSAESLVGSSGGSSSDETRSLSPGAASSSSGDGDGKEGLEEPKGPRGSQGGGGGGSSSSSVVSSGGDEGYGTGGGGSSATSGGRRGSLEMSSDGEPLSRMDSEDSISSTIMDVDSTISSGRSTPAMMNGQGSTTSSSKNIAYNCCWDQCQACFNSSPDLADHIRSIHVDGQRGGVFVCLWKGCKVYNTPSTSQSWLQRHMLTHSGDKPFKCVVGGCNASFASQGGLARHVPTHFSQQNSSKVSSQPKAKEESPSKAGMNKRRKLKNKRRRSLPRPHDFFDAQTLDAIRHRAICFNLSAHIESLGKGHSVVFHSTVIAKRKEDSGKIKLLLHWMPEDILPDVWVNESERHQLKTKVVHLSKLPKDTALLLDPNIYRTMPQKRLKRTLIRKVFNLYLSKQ

As to `CN1C(=O)[C@@]23C[C@](C)(C#N)[C@H](c4ccc5c(c4)OCO5)N2C(=O)[C@]1(C)SS3` (racemic) [ETP69, Rac-(3S,6S,7S,8aS)-6-(benzo[d][1,3]dioxol-5-yl)-2,3,7-trimethyl-1,4-dioxohexahydro-6H-3,8a-epidithiopyrrolo[1,2-a]pyrazine-7-carbonitrile], the remaining activity at 20 µM in assay [1] (read-out: Enzyme % Activity (relative to DMSO controls) Data 1) was found to be 32.3%. Further, the remaining activity at 20 µM in assay [1] (read-out: Enzyme % Activity (relative to DMSO controls) Data 2) is 32.7%. In addition, in assay [1] (summary of Table 1), the “inhibition relative to DMSO controls” value is “at least 7500”. The memory retention result in assay [2] is listed as “improvement”. Moreover, in assay [3], the “Enzyme % Activity (relative to DMSO controls) Data 1” value was found to be 98.37% and the “Enzyme % Activity (relative to DMSO controls) Data 2” value was determined as 97.85%.
